The results in this text go back to patent publication US11247990B1, “Bicyclic fused pyridine compounds as inhibitors of TAM kinases” (ARRAY BIOPHARMA INC., priority 2017, dated 2022).

SMILES strings stand for the structures. pIC50: −log10 of the molar value. Counter-ions that a name gives are not always drawn.

The target in the test is GST-tagged recombinant human TYRO3 kinase domain (Homo sapiens (Human), UniProt Q06418). The test can be described thus: TYRO3 Enzyme Assay (LanthaScreen Eu Kinase Binding, TR-FRET). Particulars: averaged IC50. The procedure: Compounds of Formula I were screened for their ability to inhibit TYRO3 kinase using Invitrogen's LanthaScreen™ Eu Kinase Binding technology. […] After a 60-minute incubation at 22° C., the reaction was measured using a PerkinElmer EnVision multimode plate reader via TR-FRET dual wavelength detection, and the percent of control (POC) calculated using a ratiometric emission factor. […] The POC values were fit to a 4 parameter logistic curve and the IC50 value is point where the curve crosses 50 POC.
Chain of GST-tagged recombinant human TYRO3 kinase domain (Q06418 518-790): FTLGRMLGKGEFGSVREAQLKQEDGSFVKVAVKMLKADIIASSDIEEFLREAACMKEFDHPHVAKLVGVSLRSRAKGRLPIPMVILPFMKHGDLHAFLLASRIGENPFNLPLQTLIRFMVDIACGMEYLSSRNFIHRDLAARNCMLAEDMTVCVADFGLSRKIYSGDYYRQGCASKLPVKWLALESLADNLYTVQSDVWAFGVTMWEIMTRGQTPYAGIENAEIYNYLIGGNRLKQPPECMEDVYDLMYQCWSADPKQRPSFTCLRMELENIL
For orientation: In TR-FRET formats the signal depends on donor and acceptor labels being close together.
In general, pIC50 refers to the IC50 on a negative log10 scale, so that one unit is a factor of ten. As to `CNc1cc2c(cn1)c(-c1cnn(C)c1)nn2[C@H]1CC[C@@H](Oc2ccc(OC)nc2)CC1` [Example 130, 1-((1s,4s)-4-((6-methoxypyridin-3-yl)oxy)cyclohexyl)-N-methyl-3-(1-methyl-1H-pyrazol-4-yl)-1H-pyrazolo[4,3-c]pyridin-6-amine], the negative logarithm of the IC50 (pIC50) was 5.00 to 6.00. Under `CNc1cc2c(cn1)c(-c1ccn(C)n1)cn2[C@H]1CC[C@@H](Oc2ccc(=O)n(C)n2)CC1` [Example 74, 2-methyl-6-(((1s,4s)-4-(3-(1-methyl-1H-pyrazol-3-yl)-6-(methylamino)-1H-pyrrolo[3,2-c]pyridin-1-yl)cyclohexyl)oxy)pyridazin-3(2H)-one] stands 5.00 to 6.00; under `CNc1cc2c(cn1)c(-c1cnn(C)c1)nn2[C@H]1CC[C@@H](Oc2cccc(C(=O)NC(C)C)c2F)CC1` [Example 466, 2-fluoro-N-isopropyl-3-(((1s,4s)-4-(3-(1-methyl-1H-pyrazol-4-yl)-6-(methylamino)-1H-pyrazolo[4,3-c]pyridin-1-yl)cyclohexyl)oxy)benzamide], 5.00 to 6.00; under `CNc1cc2c(cn1)c(-c1cnn(C)c1)nn2[C@H]1CC[C@@H](Oc2nccc(C)n2)CC1` [Example 126, N-methyl-3-(1-methyl-1H-pyrazol-4-yl)-1-((1s,4s)-4-((4-methylpyrimidin-2-yl)oxy)cyclohexyl)-1H-pyrazolo[4,3-c]pyridin-6-amine], 5.00 to 6.00. Under `CNc1cc2c(cn1)c(-c1cnn(C)c1)nn2[C@H]1CC[C@@H](Oc2ccc(C(=O)N(C)C)cc2)CC1` [Example 457, N,N-dimethyl-4-(((1s,4s)-4-(3-(1-methyl-1H-pyrazol-4-yl)-6-(methylamino)-1H-pyrazolo[4,3-c]pyridin-1-yl)cyclohexyl)oxy)benzamide] stands 5.00 to 6.00. The same measure for `CCNc1cc2c(cn1)c(-c1cnn(C)c1)nn2[C@H]1CC[C@H](Oc2cccc(F)c2)CC1` [Example 475, N-ethyl-1-((1r,4r)-4-(3-fluorophenoxy)cyclohexyl)-3-(1-methyl-1H-pyrazol-4-yl)-1H-pyrazolo[4,3-c]pyridin-6-amine]: 5.00 to 6.00; for `CNc1cc2c(cn1)c(-c1cnn(C)c1)nn2[C@H]1CC[C@@H](Oc2ccn(C)c(=O)c2)CC1` [Example 24, 1-methyl-4-(((1s,4s)-4-(3-(1-methyl-1H-pyrazol-4-yl)-6-(methylamino)-1H-pyrazolo[4,3-c]pyridin-1-yl)cyclohexyl)oxy)pyridin-2(1H)-one]: over 8.00. In the case of `CNc1cc2c(cn1)c(-c1cnn(C)c1)nn2[C@H]1CC[C@@H](Oc2cccnc2C(=O)N(C)C)CC1` [Example 277, N,N-dimethyl-3-(((1s,4s)-4-(3-(1-methyl-1H-pyrazol-4-yl)-6-(methylamino)-1H-pyrazolo[4,3-c]pyridin-1-yl)cyclohexyl)oxy)picolinamide], the pIC50 was 5.00 to 6.00. For the compound `CNc1cc2c(cn1)c(-c1cnn(C)c1)nn2[C@H]1CC[C@@H](Oc2cccc(C(=O)NC(C)C)c2)CC1` [Example 455, N-isopropyl-3-(((1s,4s)-4-(3-(1-methyl-1H-pyrazol-4-yl)-6-(methylamino)-1H-pyrazolo[4,3-c]pyridin-1-yl)cyclohexyl)oxy)benzamide], the pIC50 was 5.00 to 6.00. With `CNc1cc2c(cn1)c(-c1cnn(C)c1)nn2[C@H]1CC[C@H](Oc2cccnn2)CC1` [Example 119, N-methyl-3-(1-methyl-1H-pyrazol-4-yl)-1-((1r,4r)-4-(pyridazin-3-yloxy)cyclohexyl)-1H-pyrazolo[4,3-c]pyridin-6-amine], the negative-log IC50 (pIC50) is 5.00 to 6.00.

For the compound `Cn1cc(-c2nn([C@H]3CC[C@@H](Oc4cn(C)nc4C(F)(F)F)CC3)c3cc(Nc4ccccc4)ncc23)cn1` [Example 303, 3-(1-methyl-1H-pyrazol-4-yl)-1-((1s,4s)-4-((1-methyl-3-(trifluoromethyl)-1H-pyrazol-4-yl)oxy)cyclohexyl)-N-phenyl-1H-pyrazolo[4,3-c]pyridin-6-amine], the pIC50 was over 8.00. Under `CNc1cc2c(cn1)c(-c1cnn(C)c1)nn2[C@H]1CC[C@@H](Oc2nn(C)c(=O)c(C)c2C)CC1` [Example 8, 2,4,5-trimethyl-6-(((1s,4s)-4-(3-(1-methyl-1H-pyrazol-4-yl)-6-(methylamino)-1H-pyrazolo[4,3-c]pyridin-1-yl)cyclohexyl)oxy)pyridazin-3(2H)-one hydrochloride] stands 5.00 to 6.00; under `CNc1cc2c(cn1)c(-c1cnn(C)c1)nn2[C@H]1CC[C@@H](Oc2ccc(=O)n(CCN(C)C)n2)CC1` [Example 18, 2-(2-(dimethylamino)ethyl)-6-(((1s,4s)-4-(3-(1-methyl-1H-pyrazol-4-yl)-6-(methylamino)-1H-pyrazolo[4,3-c]pyridin-1-yl)cyclohexyl)oxy)pyridazin-3(2H)-one], 5.00 to 6.00.

`CCNc1cc2c(cn1)c(-c1cnn(C(C)(C)C#N)c1)nn2[C@H]1CC[C@@H](Oc2ccc(=O)n(CC)n2)CC1` [Example 57, 2-(4-(1-((1s,4s)-4-((1-ethyl-6-oxo-1,6-dihydropyridazin-3-yl)oxy)cyclohexyl)-6-(ethylamino)-1H-pyrazolo[4,3-c]pyridin-3-yl)-1H-pyrazol-1-yl)-2-methylpropanenitrile]: the negative logarithm of the IC50 (pIC50) was 5.00 to 6.00. The same measure for `Cn1cc(-c2nn([C@H]3CC[C@@H](Oc4ccc(=O)n(C)n4)CC3)c3cc(Nc4cccc(F)c4)ncc23)cn1` [Example 66]: over 8.00; for `CNc1cc2c(cn1)c(-c1cnn(C)c1)nn2[C@H]1CC[C@@H](Oc2ccc(=O)n(Cc3ccc(OC)cc3)n2)CC1` [Example 20, 2-(4-methoxybenzyl)-6-(((1s,4s)-4-(3-(1-methyl-1H-pyrazol-4-yl)-6-(methylamino)-1H-pyrazolo[4,3-c]pyridin-1-yl)cyclohexyl)oxy)pyridazin-3(2H)-one]: 5.00 to 6.00. The same measure for `CCNc1cc2c(cn1)c(-c1cnn(C)c1)nn2[C@H]1CC[C@@H](Oc2ccc(=O)n(CCOC)n2)CC1` [Example 13, 6-(((1s,4s)-4-(6-(ethylamino)-3-(1-methyl-1H-pyrazol-4-yl)-1H-pyrazolo[4,3-c]pyridin-1-yl)cyclohexyl)oxy)-2-(2-methoxyethyl)pyridazin-3(2H)-one]: 5.00 to 6.00. The same measure for `CNc1cc2c(cn1)c(-c1cnn(C)c1)nn2[C@H]1CC[C@@H](Oc2cccnn2)CC1` [Example 120, N-methyl-3-(1-methyl-1H-pyrazol-4-yl)-1-((1s,4s)-4-(pyridazin-3-yloxy)cyclohexyl)-1H-pyrazolo[4,3-c]pyridin-6-amine]: 5.00 to 6.00; for `CNc1cc2c(cn1)c(-c1cnn(C)c1)nn2[C@H]1CC[C@@H](Oc2cncnc2)CC1` [Example 141, N-methyl-3-(1-methyl-1H-pyrazol-4-yl)-1-((1s,4s)-4-(pyrimidin-5-yloxy)cyclohexyl)-1H-pyrazolo[4,3-c]pyridin-6-amine]: 5.00 to 6.00; for `CNc1cc2c(cn1)c(-c1cnn(C)c1)nn2[C@H]1CC[C@@H](Oc2nn(C)c(=O)cc2C)CC1` [Example 6, 2,5-dimethyl-6-(((1s,4s)-4-(3-(1-methyl-1H-pyrazol-4-yl)-6-(methylamino)-1H-pyrazolo[4,3-c]pyridin-1-yl)cyclohexyl)oxy)pyridazin-3(2H)-one]: 5.00 to 6.00. With `CNc1cc2c(cn1)c(-c1cnn(C)c1)nn2[C@H]1CC[C@@H](Oc2ccc(=O)n(CC(C)C)n2)CC1` [Example 16, 2-isobutyl-6-(((1s,4s)-4-(3-(1-methyl-1H-pyrazol-4-yl)-6-(methylamino)-1H-pyrazolo[4,3-c]pyridin-1-yl)cyclohexyl)oxy)pyridazin-3(2H)-one], the negative logarithm of the IC50 (pIC50) is 5.00 to 6.00.
